One data set deals with H2030. In words: Non Small Cell Lung Cancer Proliferation Assay (Alamar Blue). The following applies: Homo sapiens, NCI-H2030, dose response 10 μM to 5 nM. The format is cell-based, human. As to the method:
(§1) These cells have a doubling time of 1-2 days. All cell types are adherent and grow in colonies. The cells should be kept at a density between 50,000 cells/mL-500,000 cells/mL to provide for optimum growth and adequate nutrition. The cell line should be maintained at 37° C. in a humidified atmosphere with 5% CO2 in a sterile cell culture incubator.
(§2) To perform the assay, the Non Small Cell Lung Cancer lines are diluted in media and plated into 384 well microplates at a final density of 250 cells in 45 μL.
(§3) High Controls for this assay are made by treating Non Small Cell Lung Cancer cells with 5 ul of 10% DMSO. [Final concentration in this assay is 1% DMSO].
(§4) Important Note: All compounds for testing in this assay should be done at the final concentration of 1% DMSO.
(§5) After addition, the cells are placed in cell culture incubator at 37° C. for 48 hours for complete treatment.
(§6) After drug treatment, cytotoxicity is measured by Alamar Blue reduction.
(§7) The cells are incubated for 48 hours at 37° C. to complete the Alamar Blue reduction.
(§8) The final step in the assay is to measure the amount of Alamar Blue reduction. […] The Alamar Blue fluorescence is measured at an excitation of 530 nm and emission of 590 nm.
(§9) For the NSCLC project, the cell based assay was screened against a small molecule library of approximately 200,000 compounds. The compound library is stored in our automated robotic freezer (Biophile) at −20° C. in 100% DMSO. Compound freeze and thaw cycles are kept to a minimum. […] This assay was performed on a fully automated linear track robotic platform (CRS F3 Robot System, Thermo Electron Corp., Ontario, Canada) utilizing several integrated peripherals for plate handling, liquid dispensing, and readout detection. […] The microplates are then placed at 37° C. for 48 hours to complete treatment of cells with compounds. Next, 5 ul of alamar blue was added using a liquid dispenser (FlexDrop Precision Dispenser, Perkin Elmer, Mass., USA) and incubated for 48 hours at 37° C. The alamar blue prompt fluorescence was measured on Victor V (Victor^3 V, Perkin Elmer, Mass., USA) and output data files were loaded into ORIS (Oncology Research Informatics System, MSKCC, NY, USA), a screening data acquisition and analysis platform.
On the technique in general: Alamar Blue is a resazurin reagent that responds to reducing activity.

The next data set concerns H3255. The description is as above. The following applies: Homo sapiens, NCI-H3255, dose response 10 μM to 5 nM. The format is cell-based, human. The protocol:
as §1, §2, §3, §4, §5, §6, §7, §8, §9

The next data set is described as follows: in vitro. The following applies: human. The protocol:
NHBE (normal human bronchiolar epithelial cells) are primary cells obtained from donor lungs and commercially available from Cambrex. The HPLID (human peripheral lung epithelial) cell line has been immortalized with the SV40 large T-antigen. WI-38: human lung fibroblast cell line. HPLID, NHBE and WI-38 cells will serve as controls in the chemical screens. WT: wildtype; WT*: over-expressed wildtype.
Compounds were tested in dose response studies from 10 μM to 5 nM against several non small cell lung cancer lines: H358, H827, H1118, H1650, H1734, H1975, H2030, and H3255, and were also studied in a 72 hour cytotoxicity assay against the NHBE and WI-38 cell lines.

Another data set has as its system H827. In words: Non Small Cell Lung Cancer Proliferation Assay (Alamar Blue), dose response. As to conditions: Homo sapiens, read-out: H827 Dose Response (uM).
Another data set concerns H358. Described as above. The following applies: Homo sapiens, NCI-H358, read-out: H358 Dose Response (uM).
The test system of the next data set is H1975. The data set is described as follows: Non Small Cell Lung Cancer Proliferation Assay (Alamar Blue). Type of data set: cell-based, human. As to conditions: Homo sapiens, NCI-H1975, dose response 10 μM to 5 nM. The protocol:
(§10) Non Small Cell Lung Cancer cell lines are grown and maintained in Corning 175 cm2 flasks in RPMI 1640 media supplemented with 10% FBS, 1% antibiotic solution, 1% additional glutamine and pyruvate. These cells have a doubling time of 1-2 days. All cell types are adherent and grow in colonies. The cells should be kept at a density between 50,000 cells/mL-500,000 cells/mL to provide for optimum growth and adequate nutrition. The cell line should be maintained at 37° C. in a humidified atmosphere with 5% CO2 in a sterile cell culture incubator.
(§11) To perform the assay, the Non Small Cell Lung Cancer lines are diluted in media and plated into 384 well microplates at a final density of 250 cells in 45 μL. To ensure consistency and minimal pipetting error, the cells are plated using the Multidrop 384 with the following settings: Rocker Switch set at 384, Volume 45 and Column 24.
(§12) Low Controls for this assay are made by treating Non Small Cell Lung Cancer cells with 5 ul of staurosporine at 250 uM in 10% DMSO and 1% SDS. [Final concentration in this assay is 25 uM staurosporine in 1% DMSO and 0.1% SDS.]
as §3
(§13) The remaining wells of the 384 microplate may be treated with different compounds depending on the study. Important Note: All compounds for testing in this assay should be done at the final concentration of 1% DMSO.
as §5
(§14) After drug treatment, cytotoxicity is measured by Alamar Blue reduction. 5 μL of Alamar Blue is added to the 384 microplates using the Flexdrop.
as §7, §8
(§15) For the NSCLC project, the cell based assay was screened against a small molecule library of approximately 200,000 compounds. The compound library is stored in our automated robotic freezer (Biophile) at −20° C. in 100% DMSO. Compound freeze and thaw cycles are kept to a minimum. Compounds for use are diluted into the appropriate concentration and plated into 384 well microplates using our custom built low volume 384-well head tool (TPS 384, Apricot Designs Inc., CA, USA). This assay was performed on a fully automated linear track robotic platform (CRS F3 Robot System, Thermo Electron Corp., Ontario, Canada) utilizing several integrated peripherals for plate handling, liquid dispensing, and readout detection. First, non-small cell lung cancer cell lines are dispensed into 384 well microplates (Corning #3712 Tissue Culture Treated Plate, Corning, N.Y., USA) with 5 μL of test compounds at 100 uM in 10% DMSO for screening studies or 1 mM in 10% DMSO to 50 nM in 10% DMSO for dose response studies. The microplates are then placed at 37° C. for 48 hours to complete treatment of cells with compounds. Next, 5 ul of alamar blue was added using a liquid dispenser (FlexDrop Precision Dispenser, Perkin Elmer, Mass., USA) and incubated for 48 hours at 37° C. The alamar blue prompt fluorescence was measured on Victor V (Victor^3 V, Perkin Elmer, Mass., USA) and output data files were loaded into ORIS (Oncology Research Informatics System, MSKCC, NY, USA), a screening data acquisition and analysis platform.

The next data set has as its system H1650. The description is as above. The format is cell-based, human. The following applies: Homo sapiens, NCI-H1650, dose response 10 μM to 5 nM. The protocol: as §10, §11, §12, §3, §13, §5, §14, §7, §8, §15
The next data set concerns H1118. The data set is described as follows: Non Small Cell Lung Cancer Proliferation Assay (Alamar Blue), dose response. The following applies: Homo sapiens, read-out: H1118 Dose Response (uM).

Procedure for H1118: (§16) This assay was performed on a fully automated linear track robotic platform (CRS F3 Robot System, Thermo Electron Corp., Ontario, Canada) utilizing several integrated peripherals for plate handling, liquid dispensing, and readout detection. […] The microplates are then placed at 37° C. for 48 hours to complete treatment of cells with compounds. Next, 5 ul of alamar blue was added using a liquid dispenser (FlexDrop Precision Dispenser, Perkin Elmer, Mass., USA) and incubated for 48 hours at 37° C. The alamar blue prompt fluorescence was measured on Victor V (Victor^3 V, Perkin Elmer, Mass., USA) and output data files were loaded into ORIS (Oncology Research Informatics System, MSKCC, NY, USA), a screening data acquisition and analysis platform. […]
Procedure for H358: as §16
Procedure for H827: as §16

For `Cc1ccccc1-n1ncc(Cl)c(Cl)c1=O` [compound 257017], the IC50 was 1080 nM in the data set on H2030; 2950 nM in the data set on H3255; 0.71 µM in the data set on H827; 0.74 µM with H358; 470 nM in the data set on H1975; 2740 nM in the data set on H1650. For the same compound, the IC50 in the data set on H1118 amounted to 0.49 µM. Moreover, the IC50 at 72 h in the data set “in vitro” was 7.52 µM; in “in vitro” (NHBE CytoTox (uM)), 5.17 µM.

Source of the values: US20130131062A1, “PYRIDAZINONES AND FURAN-CONTAINING COMPOUNDS” (priority 2006, published 2013).
